Assay results taken from the supplement of paper PMC6580486.

Tests used:
PCB490-5 = system: PCB490-5 (human epithelioid sarcoma primary culture)
Protocol: (§1)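 Roche open-access kinase inhibitor screen (223 compounds) on human epithelioid sarcoma primary cultures from three spatially distinct regions of tumor PCB490. 384-well plates, 72 h, CellTiter-Glo viability; IC50 by Hill curve fit. 100000 nM = no IC50 reached. Compound ids carry a plate-well prefix, which is stripped.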

PCB490-3 = system: PCB490-3 (human epithelioid sarcoma primary culture)
Protocol: as §1

PCB490-4 = system: PCB490-4 (human epithelioid sarcoma primary culture)
Protocol: as §1

Row | Compound | IC50 cell viability (PCB490-5) [µM] | IC50 cell viability (PCB490-3) [µM] | IC50 cell viability (PCB490-4) [µM]
1 | Nc1c(C(=O)c2cccc(-c3ccncc3)c2)cnn1-c1ccc(F)cc1F | > 100 | > 100 | > 100
2 | COC[C@H](N=C1NC(=O)/C(=C/c2ccc3ncccc3c2)S1)c1ccccc1 | > 100 | > 100 | > 100
3 | O=C1NC(=NCCc2ccc(F)cc2)S/C1=C\c1ccc2ncccc2c1 | > 100 | > 100 | > 100
4 | Cn1cc(C2=C(N3CCOCC3)C(=O)NC2=O)c2ccccc21 | > 100 | > 100 | > 100
5 | Cc1[nH]nc2c1N=C(c1ccccc1F)c1cc(C(N)=O)ccc1N2 | 4.23 | > 100 | 2.66
6 | CON=C1NC(=O)/C(=C/c2ccc3ncccc3c2)S1 | > 100 | 6.8 | > 100
7 | O=C1NC(=NCc2ccccc2Cl)S/C1=C\c1ccc2ncccc2c1 | > 100 | > 100 | > 100
8 | Nc1c(C(=O)c2cccc(C(O)(CO)CO)c2)cnn1-c1ccc(F)cc1 | > 100 | > 100 | > 100
9 | Cn1cc(C2=C(c3cn(C)c4ccccc34)C(=O)NC2=O)c2ccccc21 | > 100 | > 100 | > 100
10 | Cn1c(=O)c(Oc2ccc(F)cc2F)cc2cnc(NCC(C)(C)O)nc21 | > 100 | > 100 | > 100
11 | Nc1c(C(=O)c2cccc(OCCN3CCOCC3)c2)cnn1-c1ccc(F)cc1 | > 100 | > 100 | > 100
12 | Fc1ccc(-c2c(-c3ccncc3)[nH]c3nccnc23)cc1 | > 100 | > 100 | > 100
13 | CS(=O)(=O)N1CCC(Nc2ncc(C(=O)c3c(F)cccc3F)c(N)n2)CC1 | > 100 | > 100 | > 100
14 | Nc1c(C(=O)c2ccccc2)cnn1-c1ccc(F)cc1 | > 100 | > 100 | > 100
15 | Nc1c(C(=O)c2cccc(CCCN3CCOCC3)c2)cnn1-c1ccc(F)cc1 | > 100 | > 100 | > 100
16 | O=C1NC(=NCCCc2ccccc2)S/C1=C\c1ccc2ncccc2c1 | > 100 | > 100 | > 100
17 | N#Cc1c(C(=O)c2ccccc2)cnn1-c1ccccc1 | > 100 | > 100 | > 100
18 | O=C1NC(=NCc2ccccc2Br)S/C1=C\c1ccc2ncccc2c1 | > 100 | > 100 | > 100
19 | CCNC(=O)[C@@H]1CCCN2C(=O)CC[C@H](NC(=O)[C@H](Cc3ccc(OP(=O)(O)O)cc3)NC(C)=O)C(=O)N12 | > 100 | > 100 | > 100
20 | COc1ccc2c(c1)C(c1ccccc1Cl)=Nc1c(n[nH]c1C)N2 | > 100 | > 100 | > 100
21 | Nc1c(C(=O)c2cccc(OC[C@H](O)CO)c2)cnn1-c1ccc(F)cc1 | > 100 | > 100 | > 100
22 | COc1cccc(C2=C(c3cn(C)c4ccc(Cl)cc34)C(=O)NC2=O)c1 | > 100 | > 100 | > 100
